Assay results reported in patent US5093233A, “Antagonists with position 13 modification” (Merck & Co., Inc., priority 1990, dated 1992).
Square brackets hold non-standard residues; d marks the D form. Peptide text beside a SMILES is read from it. * marks the point of attachment. Hydrocinnamoyl = O=C(CCc1ccccc1)*; Nle = CCCC[C@H](N)C(=O)O; Hexanoyl = CCCCCC(=O)*

Target: T1, PTH receptor, bovine renal cortical plasma membranes (Bos taurus, UniProt Q1LZF7)
T1 construct: from tissue; host or cells: bovine renal cortex (plasma membrane preparation)
T1 sequence (Q1LZF7 29-589): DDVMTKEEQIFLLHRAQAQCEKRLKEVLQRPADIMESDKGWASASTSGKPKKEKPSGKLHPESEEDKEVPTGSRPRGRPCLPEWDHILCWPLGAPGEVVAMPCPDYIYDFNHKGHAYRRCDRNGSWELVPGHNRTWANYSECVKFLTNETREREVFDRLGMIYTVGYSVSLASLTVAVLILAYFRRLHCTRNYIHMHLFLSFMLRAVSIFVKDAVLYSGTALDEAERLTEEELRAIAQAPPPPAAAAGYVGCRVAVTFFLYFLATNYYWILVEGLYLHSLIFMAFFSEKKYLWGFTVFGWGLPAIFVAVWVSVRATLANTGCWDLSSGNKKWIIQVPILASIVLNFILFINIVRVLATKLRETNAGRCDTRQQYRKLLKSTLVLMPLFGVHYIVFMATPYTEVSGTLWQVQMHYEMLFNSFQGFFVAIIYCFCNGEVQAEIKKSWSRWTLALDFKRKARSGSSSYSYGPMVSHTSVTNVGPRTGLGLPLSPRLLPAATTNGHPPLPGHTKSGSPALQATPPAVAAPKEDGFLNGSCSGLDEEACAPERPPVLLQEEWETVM
Assay: PTH binding assay in bovine renal membranes
Settings: radioligand [Nle8,18,125I-Tyr34]bPTH(1-34)NH2, 30 min at 21° C.
Protocol: PTH analogues were analyzed in a new receptor assay reported in Goldman et al., Endocrin. 123: 1468-1475 (1988). The binding assay used [Nle^8,18,^125 I-Tyr^34 ]bPTH (1-34)NH2 which was purified by HPLC (Novapak C18, 32-35% CH3 CN in 0.1% TFA) and was stored as aliquots in 25 mM TrisHCl/1%BSA at -70° C. Bovine renal cortical plasma membranes were incubated with radioligand (25,000 cpm) in a Tris-containing buffer (250 ul) for 30 min. at 21° C. Once equilibrium was reached, bound and free radioligand were separated by centrifugation. High specific binding (85%) to bovine renal cortical membranes was obtained consistently.

Compound | Kb
CCCC[C@H](NC(=O)CCc1ccccc1)C(=O)N[C@@H](Cc1c[nH]cn1)C(=O)N[C@@H](CC(N)=O)C(=O)N[C@@H](CC(C)C)C(=O)N[C@H](Cc1c[nH]c2ccccc12)C(=O)N[C@@H](CCCCNC(=O)CCc1ccccc1)C(=O)N[C@@H](Cc1c[nH]cn1)C(=O)N[C@@H](CC(C)C)C(=O)N[C@@H](CO)C(=O)N[C@@H](CO)C(=O)N[C@@H](CCCC)C(=O)N[C@@H](CCC(=O)O)C(=O)N[C@@H](CCCNC(=N)N)C(=O)N[C@H](C(=O)N[C@@H](CCC(=O)O)C(=O)N[C@@H](Cc1c[nH]c2ccccc12)C(=O)N[C@@H](CC(C)C)C(=O)N[C@@H](CCCNC(=N)N)C(=O)N[C@@H](CCCCN)C(=O)N[C@@H](CCCCN)C(=O)N[C@@H](CC(C)C)C(=O)N[C@@H](CCC(N)=O)C(=O)N[C@@H](CC(=O)O)C(=O)N[C@H](C(=O)N[C@@H](Cc1c[nH]cn1)C(=O)N[C@@H](CC(N)=O)C(=O)N[C@@H](Cc1ccc(O)cc1)C(N)=O)C(C)C)C(C)C [Structure 1, desamino[Nle^8,18,D-Trp^12,Lys^13 (N^ε --CO(CH2)2 -Phenyl),Tyr^34]bPTH(7-34)NH2] (Hydrocinnamoyl-[Nle]HNL[dW]K(Hydrocinnamoyl)HLSS[Nle]ERVEWLRKKLQDVHNY-NH2) | 13 ± 2 nM
CCCCCC(=O)N[C@@H](Cc1c[nH]cn1)C(=O)N[C@@H](CC(N)=O)C(=O)N[C@@H](CC(C)C)C(=O)N[C@H](Cc1c[nH]c2ccccc12)C(=O)N[C@@H](CCCCNC(=O)CCc1ccccc1)C(=O)N[C@@H](Cc1c[nH]cn1)C(=O)N[C@@H](CC(C)C)C(=O)N[C@@H](CO)C(=O)N[C@@H](CO)C(=O)N[C@@H](CCCC)C(=O)N[C@@H](CCC(=O)O)C(=O)N[C@@H](CCCNC(=N)N)C(=O)N[C@H](C(=O)N[C@@H](CCC(=O)O)C(=O)N[C@@H](Cc1c[nH]c2ccccc12)C(=O)N[C@@H](CC(C)C)C(=O)N[C@@H](CCCNC(=N)N)C(=O)N[C@@H](CCCCN)C(=O)N[C@@H](CCCCN)C(=O)N[C@@H](CC(C)C)C(=O)N[C@@H](CCC(N)=O)C(=O)N[C@@H](CC(=O)O)C(=O)N[C@H](C(=O)N[C@@H](Cc1c[nH]cn1)C(=O)N[C@@H](CC(N)=O)C(=O)N[C@@H](Cc1ccc(O)cc1)C(N)=O)C(C)C)C(C)C [Structure 2, desamino[Nle^8,18,D-Trp^12,Lys^13 (N^ε --CO(CH2)2 -Phenyl),Tyr^34]bPTH(8-34)NH2] (Hexanoyl-HNL[dW]K(Hydrocinnamoyl)HLSS[Nle]ERVEWLRKKLQDVHNY-NH2) | 4 ± 1 nM
CCCC[C@H](NC(=O)[C@H](CO)NC(=O)[C@H](CO)NC(=O)[C@H](CC(C)C)NC(=O)[C@H](Cc1c[nH]cn1)NC(=O)[C@H](CCCCNC(=O)CCc1ccccc1)NC(=O)[C@@H](Cc1c[nH]c2ccccc12)NC(=O)[C@H](CC(C)C)NC(=O)[C@H](CC(N)=O)NC(=O)[C@H](Cc1c[nH]cn1)NC(=O)[C@H](CCCC)NC(=O)[C@@H](N)Cc1ccccc1)C(=O)N[C@@H](CCC(=O)O)C(=O)N[C@@H](CCCNC(=N)N)C(=O)N[C@H](C(=O)N[C@@H](CCC(=O)O)C(=O)N[C@@H](Cc1c[nH]c2ccccc12)C(=O)N[C@@H](CC(C)C)C(=O)N[C@@H](CCCNC(=N)N)C(=O)N[C@@H](CCCCN)C(=O)N[C@@H](CCCCN)C(=O)N[C@@H](CC(C)C)C(=O)N[C@@H](CCC(N)=O)C(=O)N[C@@H](CC(=O)O)C(=O)N[C@H](C(=O)N[C@@H](Cc1c[nH]cn1)C(=O)N[C@@H](CC(N)=O)C(=O)N[C@@H](Cc1ccc(O)cc1)C(N)=O)C(C)C)C(C)C [Structure 3, [Nle^8,18,D-Trp^12,Lys^13 (N^ε --CO(CH2)2 -Phenyl),Tyr^34]bPTH(7-34)NH2] | 4 ± 1 nM
CCCC[C@H](NC(=O)[C@H](CO)NC(=O)[C@H](CO)NC(=O)[C@H](CC(C)C)NC(=O)[C@H](Cc1c[nH]cn1)NC(=O)[C@H](CCCCN(CC(C)C)CC(C)C)NC(=O)[C@@H](Cc1c[nH]c2ccccc12)NC(=O)[C@H](CC(C)C)NC(=O)[C@H](CC(N)=O)NC(=O)[C@H](Cc1c[nH]cn1)NC(=O)[C@H](CCCC)NC(=O)[C@@H](N)Cc1ccccc1)C(=O)N[C@@H](CCC(=O)O)C(=O)N[C@@H](CCCNC(=N)N)C(=O)N[C@H](C(=O)N[C@@H](CCC(=O)O)C(=O)N[C@@H](Cc1c[nH]c2ccccc12)C(=O)N[C@@H](CC(C)C)C(=O)N[C@@H](CCCNC(=N)N)C(=O)N[C@@H](CCCCN)C(=O)N[C@@H](CCCCN)C(=O)N[C@@H](CC(C)C)C(=O)N[C@@H](CCC(N)=O)C(=O)N[C@@H](CC(=O)O)C(=O)N[C@H](C(=O)N[C@@H](Cc1c[nH]cn1)C(=O)N[C@@H](CC(N)=O)C(=O)N[C@@H](Cc1ccc(O)cc1)C(N)=O)C(C)C)C(C)C [Structure 4, [Nle^8,18,D-Trp^12,Lys^13 (N^ε,N^ε -diisobutyl),Tyr^34]bPTH(7-34)NH2] | 35 ± 4 nM
